Columns and labels:
Format in all cases: in vivo
maize = assay: Crop safety test (pot culture method); conditions: for inhibition ratio, Maize (crop safety): plants with about 4-5 leaves, investigated 15 days later
Source text: (§1) This test example is for describing crop safety of the compound with a structure shown in Formula (1). Crop safety test method (pot culture method): The test targets are wheat and maize. Take flowerpots with an inner diameter of 12 cm, put composite soil (vegetable garden soil:seedling matrix=1:2, v/v) into them till ¾ of flowerpot height, directly sow the crop seeds (budding rate>85%), cover them with 0.2 cm thick soil, and keep the plants for future use when they grow to have about 4-5 leaves. Each compound is dissolved in N,N-dimethylformamide at doses of 75 g/ha or 150 g/ha and diluted with distilled water containing 0.1% tween-80 emulsifier to form 0.1 g/L (75 g/ha) solution and 0.2 g/L (150 g/ha) solution respectively. The solutions are sprayed through an automatic spray tower. After the solutions on weed leaves are dried in the air, the flowerpots are moved into a greenhouse for cultivation. The result is investigated 15 days later.

wheat = assay: Crop safety test (pot culture method); conditions: plants with about 4-5 leaves, investigated 15 days later
Source text: as §1

echinochloa crusgalli = assay: Herbicidal activity, pot culture method (primary and secondary screening test); conditions: sprayed at 3-leaf stage; for inhibition ratio, Echinochloa crusgalli: investigated 15 days later; for herbicidal activity inhibition ratio (%), Echinochloa crusgalli: primary screening, pot culture, 150 g/ha, result 15 days later
Method in brief: (§2)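 Inhibition ratio (%) was scored 15 days after post-emergence spraying of 3-leaf-stage weeds grown in pots of soil:seedling matrix (1:2). Dose was 150 g/ha from a 0.2 g/L DMF/water solution applied by spray tower. The secondary screening used the same method at a reduced dose.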

amaranthus retroflexus = assay: as above; conditions: sprayed at 3-leaf stage; for inhibition ratio, Amaranthus retroflexus: investigated 15 days later; for herbicidal activity inhibition ratio (%), Amaranthus retroflexus: primary screening, pot culture, 150 g/ha, result 15 days later
Method in brief: as §2

eclipta prostrata = assay: as above; conditions: sprayed at 3-leaf stage; for inhibition ratio, Eclipta prostrata: investigated 15 days later; for herbicidal activity inhibition ratio (%), Eclipta prostrata: primary screening, pot culture, 150 g/ha, result 15 days later
Method in brief: as §2

digitaria sanguinalis = assay: as above; conditions: sprayed at 3-leaf stage; for inhibition ratio, Digitaria sanguinalis: investigated 15 days later; for herbicidal activity inhibition ratio (%), Digitaria sanguinalis: primary screening, pot culture, 150 g/ha, result 15 days later
Method in brief: as §2

setaria viridis = assay: as above; conditions: sprayed at 3-leaf stage; for inhibition ratio, Setaria viridis: investigated 15 days later; for herbicidal activity inhibition ratio (%), Setaria viridis: primary screening, pot culture, 150 g/ha, result 15 days later
Method in brief: as §2

abutilon theophrasti = assay: as above; conditions: sprayed at 3-leaf stage; for inhibition ratio, Abutilon theophrasti: investigated 15 days later; for herbicidal activity inhibition ratio (%), Abutilon theophrasti: primary screening, pot culture, 150 g/ha, result 15 days later
Method in brief: as §2

| SMILES | inhibition ratio, Maize (crop safety) (maize; dose 75 g/ha) [%] | inhibition ratio, Maize (crop safety) (maize; dose 150 g/ha) [%] | inhibition ratio, Wheat (crop safety) (wheat; dose 75 g/ha) [%] | inhibition ratio, Wheat (crop safety) (wheat; dose 150 g/ha) [%] | inhibition ratio, Echinochloa crusgalli (echinochloa crusgalli; dose 37.5 g/ha) [%] | inhibition ratio, Echinochloa crusgalli (echinochloa crusgalli; dose 75 g/ha) [%] | herbicidal activity inhibition ratio (%), Echinochloa crusgalli (echinochloa crusgalli) [%] | inhibition ratio, Amaranthus retroflexus (amaranthus retroflexus; dose 37.5 g/ha) [%] | inhibition ratio, Amaranthus retroflexus (amaranthus retroflexus; dose 75 g/ha) [%] | herbicidal activity inhibition ratio (%), Amaranthus retroflexus (amaranthus retroflexus) [%] | inhibition ratio, Eclipta prostrata (eclipta prostrata; dose 37.5 g/ha) [%] | inhibition ratio, Eclipta prostrata (eclipta prostrata; dose 75 g/ha) [%] | herbicidal activity inhibition ratio (%), Eclipta prostrata (eclipta prostrata) [%] | inhibition ratio, Digitaria sanguinalis (digitaria sanguinalis; dose 37.5 g/ha) [%] | inhibition ratio, Digitaria sanguinalis (digitaria sanguinalis; dose 75 g/ha) [%] | herbicidal activity inhibition ratio (%), Digitaria sanguinalis (digitaria sanguinalis) [%] | inhibition ratio, Setaria viridis (setaria viridis; dose 37.5 g/ha) [%] | inhibition ratio, Setaria viridis (setaria viridis; dose 75 g/ha) [%] | herbicidal activity inhibition ratio (%), Setaria viridis (setaria viridis) [%] | inhibition ratio, Abutilon theophrasti (abutilon theophrasti; dose 37.5 g/ha) [%] | other results |
| --- | --- | --- | --- | --- | --- | --- | --- | --- | --- | --- | --- | --- | --- | --- | --- | --- | --- | --- | --- | --- | --- |
| CCc1ccccc1-n1c(=O)c2cc(C(=O)C3=C(O)CCCC3=O)ccc2n(C)c1=O [Compound 47] | 0 | 0 | 0 | 0 | 80 | 88 | 85 | 90 | 95 | 100 | 20 | 30 | 85 | 80 | 85 | 95 | 88 | 90 | 83 | 60 | safety to maize fields (in words) (maize; dose 150 g/ha): highly safe; inhibition ratio, Abutilon theophrasti (abutilon theophrasti; dose 75 g/ha): 90%; herbicidal activity inhibition ratio (%), Abutilon theophrasti (abutilon theophrasti): 100% |
| CC(C)c1ccccc1-n1c(=O)c2cc(C(=O)C3=C(O)CCCC3=O)ccc2n(C)c1=O [Compound 65] | 0 | 10 | 0 | 10 | 95 | 100 | 80 | 50 | 60 | 90 | 30 | 50 | 80 | 30 | 40 | 100 | 80 | 85 | 98 | 50 | inhibition ratio, Abutilon theophrasti (abutilon theophrasti; dose 75 g/ha): 70%; herbicidal activity inhibition ratio (%), Abutilon theophrasti (abutilon theophrasti): 98% |
| CCn1c(=O)n(-c2ccccc2C)c(=O)c2cc(C(=O)C3=C(O)CCCC3=O)ccc21 [Compound 66] | 0 | 5 | 0 | 10 | 100 | 100 | 100 | 90 | 100 | 93 | 95 | 100 | 95 | 60 | 97.5 | 95 | 97.5 | 100 | 100 | 100 | inhibition ratio, Abutilon theophrasti (abutilon theophrasti; dose 75 g/ha): 100%; herbicidal activity inhibition ratio (%), Abutilon theophrasti (abutilon theophrasti): 100% |

Source: patent US9771334B2, “Triketone compound and preparation method and use thereof” (SHANDONG CYNDA CHEMICAL CO., LTD., priority 2013, dated 2017)
